# Data from paper PMC7024211, “Antifouling Napyradiomycins from Marine-Derived Actinomycetes Streptomyces aculeolatus” (Marine Drugs, 2020).
# Tests used:
# C. marina [1] = assay: Bacterial growth inhibition assay (OD600nm); format: cell-based, Cobetia marina
# Excerpt: (§1) Five marine bacterial species were used as models to assess antimicrofouling activity. The biofilm-forming marine bacteria Marinobacter hydrocarbonoclasticus DSM 8798 (ATCC 49840), Cobetia marina DSM 4741, Phaeobacter inhibens DSM 17,395, and Pseusooceanicola batsensis DSM 15,984 were obtained from DSMZ (Leibniz Institute DSMZ—German collection of Microorganisms and Cell Cultures) and Micrococcus luteus. Cultures were routinely grown in liquid marine broth (Carl Roth GmbH, Karlsruhe, Germany) with agitation (180 rpm) or on agar-supplemented marine broth, at 28 °C (M. hydrocarbonoclasticus and C. marina) or 30 °C (P. inhibens and P. batsensis). M. luteus was maintained in Brain Heart Infusion broth (BHI, Becton Dickinson, GmbH, Heidelberg, Germany) with agitation (180 rpm) or on agar-supplemented BHI, at 37 °C.
# (§2) The antibacterial activity of the napyradiomycins (1–12) was assessed in 96-well polystyrene flat bottom microplates (Nunclon Delta Surface, Thermo Scientific, Roskilde, Denmark) following previously reported procedures. […] After 24 h (M. hydrocarbonoclasticus, C. marina) or 48 h (P. batsensis, P. inhibens, M. luteus) incubation, the OD600nm was determined (Molecular Devices, Spectra Max 190). […] The percentage of growth inhibition was calculated as the amount of growth relative to that of the bacterial species without added compounds (with the same amount of DMSO added). CuSO4 (5 μM), a potent antifouling agent used in antifouling paints, was used as reference.
# (§3) All assays were performed in triplicate, and results are representative of the average and standard error of the mean (SEM). Statistical analysis was performed in GraphPad Prism 8.0.2 (San Diego, CA, USA), using one-way ANOVA followed by a Dunnett’s multiple comparisons test against the control (species grown with the same amount of DMSO added).
# [2] = Mussel plantigrade larvae settlement, 15 h acute exposure assay; format: in vivo; settings: Mytilus galloprovincialis (mussel, plantigrade larvae), in vivo, no mortality at highest tested concentration 12 µg/mL
# Description: (§4) Mussel (M. galloprovincialis) adhesive larvae (plantigrades) were used to assess in vivo the antifouling activity of napyradiomycins (1–12) towards macrofouling. Juvenile mussel aggregates were collected at the intertidal rocky shore during low spring tides, at Memória beach, Matosinhos, Portugal (41°13′59″ N; 8°43′28″ W). At the laboratory, immediately before the bioassays, mussel plantigrade larvae were screened and isolated from the juvenile aggregates using a binocular microscope (Olympus SZX2-ILLT, Hamburg, Germany) and washed with filtered seawater to remove organic debris. Only competent plantigrade larvae (those showing foot exploratory behavior) were selected and used in the exposure bioassays following previously validated procedures. Plantigrades were exposed in 24-well polystyrene plates for 15 h in the darkness at 18 °C. DMSO was used as solvent for crude extracts, fractions and pure compounds stock and working solutions. Working solutions were prepared by successive dilutions of stock solutions in DMSO and then diluted in filtered seawater to obtain the test solutions. DMSO concentration in test solutions was always 0.1%. Four well replicates were used per condition with five larvae per well. Two negative controls, one with ultra-pure water and the other with DMSO 0.1% were included in all bioassays, as well as a positive control with 5 μM CuSO4 (a potent antifouling agent). Anti-settlement bioactivity was determined by the presence/absence of fixed byssal threads produced by each individual larvae for all the conditions tested. […] Chi-square Pearsons goodness-of-fit test was applied to data in order to determine EC50. Significance was considered at p < 0.01 for all analyses, and 95% lower and upper confidence limits [95% LCL; UCL] were presented. Therapeutic ratio (LC50/EC50) was used to evaluate the effectiveness vs. toxicity of compounds [19, 21].
# [3] = tested on: M. galloprovincialis plantigrade larvae; assay: as above; format: in vivo; settings: 95% LCL, UCL in brackets
# Description: as §4
# M. luteus [4] = assay: Biofilm inhibition assay (crystal violet); format: cell-based, Micrococcus luteus
# Description: (§5) In a 96-well plate, biofilm grown cultures of M. hydrocarbonoclasticus and C. marina were incubated with napyradiomycins (1–12) at a concentration of 31.25 µg/mL. After discarding the media, biofilm inhibition was determined from OD600 measurements of crystal violet stained cells resuspended from the plate bottom with acetic acid.
# as §1
# (§6) The antibiofilm activity of napyradiomycins (1–12) against the five marine bacterial species was assessed in 96-well polystyrene flat bottom microplates (Nunclon Delta Surface, Thermo Scientific, Roskilde, Denmark) as previously reported. For initial screening, bacterial overnight cultures were diluted to an optical density (OD600nm) value of 0.2 and incubated statically at 28 °C (M. hydrocarbonoclasticus, C. marina), 30 °C (P. inhibens, P. batsensis) or 37 °C (M. luteus) in the 96-well microplate in the presence or absence of 31.25 µg/mL of napyradiomycins, solubilized in DMSO. After 24 h (M. hydrocarbonoclasticus, C. marina) or 48 h (P. batsensis, P. inhibens, M. luteus) incubation, the OD600nm was determined. The planktonic cells and media were discarded, and the wells were washed twice with deionized water. The biofilm was fixed for 1 h at 60 °C and stained with crystal violet 0.06% for 10 min. The dye was discarded, and the wells were again washed twice with deionized water. The stained biofilm was solubilized with 30% acetic acid and the OD600nm was determined. […] The percentage of biofilm inhibition was calculated as the amount of biofilm relative to that of the bacterial species without added compounds (with the same amount of DMSO added). CuSO4 (5 μM), a potent antifouling agent used in antifouling paints, was used as reference.
# as §3, with “8.0.2,” for “8.0.2 (San Diego, CA, USA),”
# P. inhibens = assay: Biofilm inhibition assay (crystal violet); format: cell-based, Phaeobacter inhibens; settings: 31.25 µg/mL
# Description: as §5, §1, §6
# All assays were performed in triplicate, and results are representative of the average and standard error of the mean (SEM). […]
# M. luteus [5] = assay: Bacterial growth inhibition assay (OD600nm); format: cell-based, Micrococcus luteus
# Excerpt: as §1, §2, §3
# C. marina [6] = assay: Biofilm inhibition assay (crystal violet); format: cell-based, Cobetia marina; settings: 31.25 µg/mL
# Description: as §5, §1, §6
# as §3, with “8.0.2,” for “8.0.2 (San Diego, CA, USA),”
smiles,measurement,setting,value
"CC(C)=CCCC(C)=CCC12OC(C)(C)C(Cl)CC1(Cl)C(=O)c1c(O)cc(O)cc1C2=O (stereo not shown) [Napyradiomycin 1, napyradiomycin A1]",% growth inhibition C. marina,C. marina [1]; 0.98 µg/mL,N.I.
same,% growth inhibition C. marina,C. marina [1]; 1.95 µg/mL,N.I.
same,inhibition at 3.91 µg/mL,"C. marina [1]; Cobetia marina, 3.91 µg/mL",5.5 ± 0.8%
same,inhibition at 7.81 µg/mL,"C. marina [1]; Cobetia marina, 7.81 µg/mL",18.2 ± 0.7%
same,inhibition at 15.6 µg/mL,"C. marina [1]; Cobetia marina, 15.60 µg/mL",15.3 ± 0.7%
same,inhibition at 31.25 µg/mL,"C. marina [1]; Cobetia marina, 31.25 µg/mL",19.8 ± 0.6%
same,LC50 at 15 h,[2],> 12 µg/mL
same,EC50 [Conf. limits] larval settlement,[3],0.655 [0.300; 0.906] µg/mL
same,EC50,"[3]; Mytilus galloprovincialis, 15 h, read-out: EC50 [Conf. limits] larval settlement",0.66 µg/mL
same,inhibition at 0.98 µg/mL,"M. luteus [4]; Micrococcus luteus, 0.98 µg/mL, read-out: % inhibition of biofilm formation M. luteus",59 ± 7.4%
same,inhibition at 1.95 µg/mL,"M. luteus [4]; Micrococcus luteus, 1.95 µg/mL, read-out: % inhibition of biofilm formation M. luteus",90.3 ± 3.8%
same,inhibition at 3.91 µg/mL,"M. luteus [4]; Micrococcus luteus, 3.91 µg/mL, read-out: % inhibition of biofilm formation M. luteus",95.8 ± 2.9%
same,inhibition at 7.81 µg/mL,"M. luteus [4]; Micrococcus luteus, 7.81 µg/mL, read-out: % inhibition of biofilm formation M. luteus",96.7 ± 0.5%
same,inhibition at 15.6 µg/mL,"M. luteus [4]; Micrococcus luteus, 15.6 µg/mL, read-out: % inhibition of biofilm formation M. luteus",95.4 ± 0.9%
same,inhibition at 31.25 µg/mL,"M. luteus [4]; Micrococcus luteus, 31.25 µg/mL, read-out: % Biofilm Inhibition ± SEM M. luteus",88.6 ± 2.9%
same,% inhibition of biofilm formation M. luteus,M. luteus [4]; concentrations higher than 1.95 µg/mL,> 90%
same,% Biofilm Inhibition ± SEM P. inhibens,P. inhibens,N.I.
same,% growth inhibition M. luteus,M. luteus [5]; 3.91 µg/mL,93.6 ± 1.1%
same,inhibition at 0.98 µg/mL,"M. luteus [5]; Micrococcus luteus, 0.98 µg/mL",42.9 ± 0.4%
same,inhibition at 1.95 µg/mL,"M. luteus [5]; Micrococcus luteus, 1.95 µg/mL",69.8 ± 0.5%
same,inhibition at 3.91 µg/mL,"M. luteus [5]; Micrococcus luteus, 3.91 µg/mL",> 90%
same,inhibition at 7.81 µg/mL,"M. luteus [5]; Micrococcus luteus, 7.81 µg/mL",96 ± 0.3%
same,inhibition at 15.6 µg/mL,"M. luteus [5]; Micrococcus luteus, 15.60 µg/mL",96.5 ± 0.2%
same,inhibition at 31.25 µg/mL,"M. luteus [5]; Micrococcus luteus, 31.25 µg/mL",96.1 ± 0.5%
same,% Biofilm Inhibition ± SEM C. marina,C. marina [6],N.I.
